# In ChEMBL document CHEMBL4390659, “Molecular hybridization approach for phenothiazine incorporated 1,2,3-triazole hybrids as promising antimicrobial agents: Design, synthesis, molecular docking and in silico ADME studies” (Eur J Med Chem, 2019):
# Tests used:
# [1] = system: Mycobacterium tuberculosis; experiment: Antibacterial activity against Mycobacterium tuberculosis H37Rv ATCC 27294 assessed as reduction in mycobacterial growth incubated for 5 days by MABA method; type: functional; settings: H37Rv ATCC 27294, 120 h
# [2] = system: Mycobacterium tuberculosis; experiment: Potency index, ratio of ciprofloxacin MIC to test compound MIC against Mycobacterium tuberculosis H37Rv ATCC 27294; type: functional
# [3] = system: Escherichia coli; experiment: Antibacterial activity against Escherichia coli incubated for 24 hrs by agar dilution method; type: functional
# [4] = system: Staphylococcus aureus; experiment: Antibacterial activity against Staphylococcus aureus incubated for 24 hrs by agar dilution method; type: functional
# [5] = system: Pseudomonas aeruginosa; experiment: Antibacterial activity against Pseudomonas aeruginosa incubated for 24 hrs by agar dilution method; type: functional
# [6] = system: Mycobacterium tuberculosis; experiment: Potency index, ratio of streptomycin MIC to test compound MIC against Mycobacterium tuberculosis H37Rv ATCC 27294; type: functional
# [7] = system: Vero; experiment: Cytotoxicity against African green monkey Vero cells assessed as reduction in cell viability incubated for 72 hrs by MTT assay; type: cell-based; settings: Chlorocebus sabaeus
# [8] = Cytotoxicity against African green monkey Vero cells assessed as cell growth inhibition at 6.25 ug/ml incubated for 72 hrs by MTT assay relative to control; type: cell-based; settings: chlorocebus sabaeus, read-out: GI
# [9] = Selectivity index, ratio of IC50 for African green monkey Vero cells to MIC for Mycobacterium tuberculosis H37Rv ATCC 27294; type: toxicity; settings: read-out: Selectivity Index
# [10] = system: Mycobacterium tuberculosis; experiment: Potency index, ratio of pyrazinamide MIC to test compound MIC against Mycobacterium tuberculosis H37Rv ATCC 27294; type: functional
SMILES,MIC [1],Ratio [2],MIC [3],MIC [4],MIC [5],Ratio [6],IC50 [7],"inhibition at 72 h, 6.25 ug/ml [8]",selectivity ratio [9],Ratio [10]
N#Cc1ccc(Cn2cc(CN3c4ccc(/C=N/NC(=O)c5ccccc5)cc4Sc4ccc(C(F)(F)F)cc43)nn2)cc1,2.62 µM,4,50 µg/mL,50 µg/mL,50 µg/mL,4,552 µg/mL,12.3%,44.7,
CN1c2ccccc2Sc2cc(/C=N/OCc3cn(Cc4ccc([N+](=O)[O-])cc4)nn3)ccc21,52.9 µM,,50 µg/mL,25 µg/mL,100 µg/mL,,,,,
O=C(O)c1cn(C2CC2)c2cc(N3CCNCC3)c(F)cc2c1=O [CIPROFLOXACIN],,,,2 µg/mL,4 µg/mL,,,,,
CN1c2ccccc2Sc2cc(/C=N/OCc3cn(Cc4ccc(F)cc4)nn3)ccc21,56.1 µM,,25 µg/mL,12.5 µg/mL,25 µg/mL,,,,,
CN1c2ccccc2Sc2cc(COCc3cn(Cc4ccccc4)nn3)ccc21,60.3 µM,,50 µg/mL,50 µg/mL,100 µg/mL,,,,,
Cc1ccc(Cn2cc(CN3c4ccccc4Sc4ccccc43)nn2)cc1,6.25 µg/mL,,100 µg/mL,50 µg/mL,100 µg/mL,,,,,
N#Cc1ccc(Cn2cc(CN3c4ccccc4Sc4cc(/C=N/NC(=O)c5ccc([N+](=O)[O-])cc5)ccc43)nn2)cc1,2.72 µM,4,50 µg/mL,25 µg/mL,50 µg/mL,4,693 µg/mL,7.57%,91.5,2
N#Cc1ccc(Cn2cc(CN3c4ccc(/C=N/NC(=O)c5ccncc5)cc4Sc4ccc(C(F)(F)F)cc43)nn2)cc1,2.62 µM,4,50 µg/mL,50 µg/mL,100 µg/mL,4,1480 µg/mL,7.14%,207,2
CN1c2ccccc2Sc2cc(COCc3cn(Cc4ccccc4F)nn3)ccc21,28.9 µM,,25 µg/mL,25 µg/mL,50 µg/mL,,,,,
N#Cc1ccc(Cn2cc(CN3c4ccc(/C=N/NC(=O)c5ccc(F)cc5)cc4Sc4ccc(C(F)(F)F)cc43)nn2)cc1,2.55 µM,4,12.5 µg/mL,6.25 µg/mL,12.5 µg/mL,4,647 µg/mL,8.42%,76.8,2
N#Cc1ccc(Cn2cc(CN3c4ccccc4Sc4cc(/C=N/NC(=O)c5cccnc5)ccc43)nn2)cc1,2.94 µM,4,25 µg/mL,12.5 µg/mL,50 µg/mL,4,1610 µg/mL,8.42%,192,
CN1c2ccccc2Sc2cc(COCc3cn(Cc4ccc(F)cc4)nn3)ccc21,28.9 µM,,25 µg/mL,25 µg/mL,50 µg/mL,,,,,
CN1c2ccccc2Sc2cc(/C=N/OCc3cn(Cc4ccc(C#N)cc4)nn3)ccc21,27.6 µM,,25 µg/mL,12.5 µg/mL,25 µg/mL,,,,,
N#Cc1ccc(Cn2cc(CN3c4ccc(/C=N/NC(=O)c5cnccn5)cc4Sc4ccc(C(F)(F)F)cc43)nn2)cc1,2.61 µM,4,50 µg/mL,50 µg/mL,100 µg/mL,4,2110 µg/mL,11.6%,183,2
COc1ccc(Cn2cc(CN3c4ccccc4Sc4ccccc43)nn2)cc1,1.6 µg/mL,4,25 µg/mL,25 µg/mL,50 µg/mL,4,6040 µg/mL,7.57%,797,2
c1ccc(Cn2cc(CN3c4ccccc4Sc4ccccc43)nn2)cc1,6.25 µg/mL,,50 µg/mL,50 µg/mL,100 µg/mL,,,,,
CN1c2ccccc2Sc2cc(/C=N/OCc3cn(Cc4ccccc4F)nn3)ccc21,56.1 µM,,25 µg/mL,12.5 µg/mL,25 µg/mL,,,,,
N#Cc1ccc(Cn2cc(CN3c4ccccc4Sc4cc(/C=N/NC(=O)c5cnccn5)ccc43)nn2)cc1,2.94 µM,4,50 µg/mL,50 µg/mL,100 µg/mL,4,2400 µg/mL,12.3%,195,2
NNC(=O)c1ccncc1 [ISONIAZID],3.12 µg/mL,,,,,,,,,

SMILES,MIC [1],Ratio [2],MIC [3],MIC [4],MIC [5],Ratio [6],IC50 [7],"inhibition at 72 h, 6.25 ug/ml [8]",selectivity ratio [9],Ratio [10]
CN[C@@H]1[C@H](O[C@H]2[C@H](O[C@H]3[C@H](O)[C@@H](O)[C@H](N=C(N)N)[C@@H](O)[C@@H]3N=C(N)N)O[C@@H](C)[C@]2(O)C=O)O[C@@H](CO)[C@H](O)[C@H]1O [STREPTOMYCIN],6.25 µg/mL,,,,,,,,,
N#Cc1ccc(Cn2cc(CN3c4ccccc4Sc4ccccc43)nn2)cc1,1.6 µg/mL,4,12.5 µg/mL,6.25 µg/mL,12.5 µg/mL,4,1320 µg/mL,11.1%,119,2
COc1ccc(Cn2cc(COCc3ccc4c(c3)Sc3ccccc3N4C)nn2)cc1,56.2 µM,,100 µg/mL,50 µg/mL,50 µg/mL,,,,,
CN1c2ccccc2Sc2cc(COCc3cn(Cc4ccc([N+](=O)[O-])cc4)nn3)ccc21,54.4 µM,,50 µg/mL,25 µg/mL,50 µg/mL,,,,,
Cc1ccc(Cn2cc(COCc3ccc4c(c3)Sc3ccccc3N4C)nn2)cc1,58.3 µM,,100 µg/mL,50 µg/mL,100 µg/mL,,,,,
Fc1ccccc1Cn1cc(CN2c3ccccc3Sc3ccccc32)nn1,1.6 µg/mL,4,12.5 µg/mL,12.5 µg/mL,25 µg/mL,4,924 µg/mL,3.33%,278,2
CN1c2ccccc2Sc2cc(COCc3cn(Cc4ccc(C#N)cc4)nn3)ccc21,28.4 µM,,25 µg/mL,12.5 µg/mL,25 µg/mL,,,,,
COc1ccc(Cn2cc(CO/N=C/c3ccc4c(c3)Sc3ccccc3N4C)nn2)cc1,54.6 µM,,100 µg/mL,50 µg/mL,100 µg/mL,,,,,
O=[N+]([O-])c1ccc(Cn2cc(CN3c4ccccc4Sc4ccccc43)nn2)cc1,1.6 µg/mL,4,50 µg/mL,50 µg/mL,100 µg/mL,4,484 µg/mL,11.4%,42.5,2
Cc1ccc(C(=O)N/N=C/c2ccc3c(c2)Sc2ccc(C(F)(F)F)cc2N3Cc2cn(Cc3ccc(C#N)cc3)nn2)cc1,2.56 µM,4,50 µg/mL,25 µg/mL,50 µg/mL,4,1570 µg/mL,6.28%,250,2
Fc1ccc(Cn2cc(CN3c4ccccc4Sc4ccccc43)nn2)cc1,3.12 µg/mL,,12.5 µg/mL,12.5 µg/mL,12.5 µg/mL,,3800 µg/mL,8.34%,456,
N#Cc1ccc(Cn2cc(CN3c4ccccc4Sc4ccc(C(F)(F)F)cc43)nn2)cc1,1.6 µg/mL,4,,,,4,2080 µg/mL,5%,417,2
Cc1ccc(C(=O)N/N=C/c2ccc3c(c2)Sc2ccccc2N3Cc2cn(Cc3ccc(C#N)cc3)nn2)cc1,2.87 µM,4,50 µg/mL,25 µg/mL,100 µg/mL,4,456 µg/mL,10.6%,42.9,
N#Cc1ccc(Cn2cc(CN3c4ccccc4Sc4cc(/C=N/NC(=O)c5ccncc5)ccc43)nn2)cc1,2.94 µM,4,25 µg/mL,12.5 µg/mL,25 µg/mL,4,1300 µg/mL,5.13%,253,2
NC(=O)c1cnccn1 [PYRAZINAMIDE],3.12 µg/mL,,,,,,,,,
N#Cc1ccc(Cn2cc(CN3c4ccccc4Sc4cc(/C=N/NC(=O)c5ccc(F)cc5)ccc43)nn2)cc1,2.85 µM,4,12.5 µg/mL,6.25 µg/mL,12.5 µg/mL,4,758 µg/mL,11.4%,66.3,2
N#Cc1ccc(Cn2cc(CN3c4ccc(/C=N/NC(=O)c5cccnc5)cc4Sc4ccc(C(F)(F)F)cc43)nn2)cc1,2.62 µM,4,100 µg/mL,50 µg/mL,100 µg/mL,4,845 µg/mL,7.32%,115,2
Cc1ccc(Cn2cc(CO/N=C/c3ccc4c(c3)Sc3ccccc3N4C)nn2)cc1,56.6 µM,,50 µg/mL,25 µg/mL,100 µg/mL,,,,,
CN1c2ccccc2Sc2cc(/C=N/OCc3cn(Cc4ccccc4)nn3)ccc21,58.4 µM,,100 µg/mL,50 µg/mL,50 µg/mL,,,,,
